Several values for one entry are separate records, joined by “and”; a condition that tells them apart may be missing. Identical values can stand only once. Like-named read-outs stand apart in the source and are kept apart here.
Experiments:
[1] = tested on: A2780 human ovarian carcinoma cells; assay: Cytotoxicity, sulphorodamine B test, A2780; type: cell-based; conditions: 72 h, cell survival, read-out: A2780 IC50 ± SD
Procedure: (§1) Cytotoxicity of the Conjugates on Different Tumor Cell Lines
(§2) To evaluate the effect of the compound on cell survival, the sulphorodamine B test was used. PC3 human prostate carcinoma, A498 human renal carcinoma, A2780 human ovarian carcinoma cells were used. A2780 and PC3 tumor cells were grown RPMI 1640 containing 10% fetal bovine serum (GIBCO), whereas A498 tumor cells were grown in EMEM containing 10% fetal bovine serum (GIBCO).
(§3) Tumor cells were seeded in 96-well tissue culture plates (Corning) at approximately 10% of confluence and were allowed to attach and recover for at least 24 h. […] The plates were incubated for 72 h at 37° C. At the end of the treatment, the plates were washed by remotion of the surnatant and addition of PBS 3 times. 200 μl PBS and 50 μl of cold 80% TCA were added. The plates were incubated on ice for at least 1 h. TCA was removed, the plates were washed 3 times for immersion in distilled-water and dried on paper and at 40° C. for 5 min. Then 200 μl of 0.4% sulphorodamine B in 1% acetic acid were added. The plates were incubated at room temperature for other 30 min. Sulphorodamine B was removed, the plates were washed for immersion in 1% acetic acid for 3 times, then they were dried on paper and at 40° C. for 5 min. Then 200 μl Tris 10 mM were added, the plates were kept under stirring for 20 min. The survival cell was determined as optical density by a Multiskan spectrofluorimeter at 540 nm. The amount of cells killed was calculated as the percentage decrease in sulphorodamine B binding compared with control cultures. The IC50 values were calculated with the “ALLFIT” program.

[2] = tested on: A498 human renal carcinoma; assay: Cytotoxicity, sulphorodamine B test, A498; type: cell-based; conditions: A498 cells, 72 h, cell survival; read-out: A498 IC50 ± SD
Procedure: as §1, §2, §3

[3] = target: T1, purified αvβ3 receptor (Homo sapiens, UniProt P05106+P06756); assay: Binding to integrin αvβ3 receptors ([125I]echistatin competition)
T1 construct: purchased Chemicon CC1020
Procedure: Binding to Integrin αvβ3 Receptors
(§4) An aliquot of 100 μl was added to 96-well plates and incubated overnight at +4° C. Plates were washed once with buffer (50 mM Tris, pH 7,4, 100 mM NaCl, 2 mM CaCl2, 1 mM MgCl2, 1 mM MnCl2, 1% bovine serum albumin) and then incubated for another 2 hours at room temperature. Plates were washed twice with the same buffer and incubated for 3 hours at room temperature with the radioactive ligand [^125I]echistatin (Amersham Pharmacia Biotech) 0.05 nM in the presence of competition ligands. At the end of incubation, the wells were washed and the radioactivity determined using a gamma counter (Packard). Non-specific binding of the ligand was determined in the presence of excess cold echistatin (1 μM).
(§5) Evaluation of IC50 Parameters
(§6) The IC50 parameter was elaborated using “ALLFIT” software.

[4] = target: T2, purified αvβ5 receptor (Homo sapiens, UniProt P06756+P18084); assay: Binding to integrin αvβ5 receptors ([125I]echistatin competition)
T2 construct: purchased Chemicon CC1020
Procedure: Binding to Integrin αvβ5 Receptors
as §4, with “7.4,” for “7,4,”, “0.15” for “0.05”, “Non-specific ligand” for “Non-specific”, “binding” for “binding of the ligand”
as §5, §6

[5] = tested on: PC3 human prostate carcinoma; assay: Cytotoxicity, sulphorodamine B test, PC3; type: cell-based; conditions: PC3 cells, 72 h, cell survival; read-out: PC3 IC50 ± SD
Procedure: as §1, §2, §3

Structure (SMILES) | IC50 [1] [nM] | IC50 [2] | IC50 [3] [nM] | IC50 [4] [nM] | IC50 [5] [nM] | IC50 ([3]; inhibition of specific [125I]echistatin 0.05 nM binding, 3 hours at room temperature, read-out: αvβ3 IC50 ± SD) [nM] | IC50 ([4]; inhibition of specific [125I]echistatin 0.15 nM binding, 3 hours at room temperature, read-out: αvβ5 IC50 ± SD) [nM]
CC[C@@]1(O)C(=O)OCc2c1cc1n(c2=O)Cc2c-1nc1ccccc1c2/C=N\OCCNC(=O)COCCOCCOCC(=O)NCc1ccc(C[C@@H]2NC(=O)[C@@H](Cc3ccccc3)NC(=O)[C@H](CC(=O)O)NC(=O)CNC(=O)[C@H](CCCNC(=N)N)NC2=O)cc1 [ST2742] | 180 ± 10 | 740 nM and 700 nM | 12.5 ± 2.1 | 6.5 ± 0.03 | 27000 ± 3900 | – | –
CC[C@@]1(O)C(=O)OCc2c1cc1n(c2=O)Cc2c-1nc1ccccc1c2/C=N\OCCNC(=O)CCC[C@@H]1NC(=O)[C@@H](Cc2ccccc2)NC(=O)[C@H](CC(=O)O)NC(=O)CNC(=O)[C@H](CCCNC(=N)N)NC1=O [ST2686] | 400 ± 30 | 3200 nM | – | – | 15000 ± 1500 | 0.59 ± 0.01 | 0.37 ± 0.01
CC[C@@]1(O)C(=O)OCc2c1cc1n(c2=O)Cc2c-1nc1ccccc1c2/C=N\OCCNC(=O)CCC(=O)NCc1ccc(C[C@@H]2NC(=O)[C@@H](Cc3ccccc3)NC(=O)[C@H](CC(=O)O)NC(=O)CNC(=O)[C@H](CCCNC(=N)N)NC2=O)cc1 [ST2724] | 160 ± 1 | 4300 nM | 7.27 ± 0.06 | 8.39 ± 0.07 | 4700 ± 400 | – | –
